Results as given in patent publication US20250051277A1, “DELIVERY OF THERAPEUTIC ALKALOID COMPOUNDS” (Sensorium Therapeutics, Inc., priority 2021, published 2025).
Read-outs that look alike come from different tables or passages of the source.

Legend:
[1] = type: physicochemical; conditions: SGF with pepsin, pH 1.5, 37° C.; for Condition 1 Conversion (%): 0.5 mM; for Condition 1 Conversion (%), first value of pair x/y: first of two values; for Condition 1 Conversion (%), second value of pair x/y: second of two values
[2] = type: physicochemical; conditions: DI water, 25° C., 0.5 mM

SMILES | Condition 1 Conversion (%) ([1]; time 1 min) | Condition 1 Conversion (%) ([1]; time 5 min) | Condition 1 Conversion (%) ([1]; time 30 min) | Condition 1 Conversion (%) ([1]; time 1 h) | Condition 1 Conversion (%) ([1]; time 4 h) | Condition 1 Conversion (%) ([1]; time 24 h) | Condition 2 Conversion (%) ([2]; time 1 min) | Condition 2 Conversion (%) ([2]; time 5 min) | Condition 2 Conversion (%) ([2]; time 30 min) | Condition 2 Conversion (%) ([2]; time 1 h) | Condition 2 Conversion (%) ([2]; time 4 h) | Condition 2 Conversion (%) ([2]; time 24 h) | other results
COc1ccc([C@@]23CCC(=NNc4ccc5ccccc5n4)C[C@@H]2N(C)CC3)cc1OC [Compound 366, N-[[(3aS,7aS)-3a-(3,4-dimethoxyphenyl)-1-methyl-2,3,4,5,7,7a-hexahydroindol-6-ylidene]amino]quinolin-2-amine] | 0 | 8.9 | 47.1 | 77.4 | 94.1 | 100 | 0 | 0 | 10.11 | 11.33 | 12.6 | 17.4 | –
COc1ccc([C@@]23CC/C(=N\OC(C)(C)OC)C[C@@H]2N(C)CC3)cc1OC [Compound 204, (E,3aS,7aS)-3a-(3,4-dimethoxyphenyl)-N-(1-methoxy-1-methyl-ethoxy)-1-methyl-2,3,4,5,7,7a-hexahydroindol-6-imine] | – | – | – | – | – | – | 0 | 0 | 0 | 0 | 0 | 0 | Condition 1 Conversion (%), first value of pair x/y ([1]; time 1 min): 100%; Condition 1 Conversion (%), second value of pair x/y ([1]; time 1 min): 0%; Condition 1 Conversion (%), first value of pair x/y ([1]; time 5 min): 100%; Condition 1 Conversion (%), second value of pair x/y ([1]; time 5 min): 0%; Condition 1 Conversion (%), first value of pair x/y ([1]; time 30 min): 0%; Condition 1 Conversion (%), second value of pair x/y ([1]; time 30 min): 100%; Condition 1 Conversion (%), first value of pair x/y ([1]; time 1 h): 0%; Condition 1 Conversion (%), second value of pair x/y ([1]; time 1 h): 100%; Condition 1 Conversion (%), first value of pair x/y ([1]; time 4 h): 0%; Condition 1 Conversion (%), second value of pair x/y ([1]; time 4 h): 100%; Condition 1 Conversion (%), first value of pair x/y ([1]; time 24 h): 0%; Condition 1 Conversion (%), second value of pair x/y ([1]; time 24 h): 100%
COc1ccc([C@@]23CCC(=NNc4ccc(Cl)cc4)C[C@@H]2N(C)CC3)cc1OC [Compound 221, N-[[(3aS,7aS)-3a-(3,4-dimethoxyphenyl)-1-methyl-2,3,4,5,7,7a-hexahydroindol-6-ylidene]amino]-4-chloro-aniline] | 0 | 0 | 2.9 | 3.4 | 17.5 | 95.1 | 0 | 0 | 0 | 0 | 0 | 0 | –
COc1ccc([C@@]23CC/C(=N/OC45CC6CC(CC(C6)C4)C5)C[C@@H]2N(C)CC3)cc1OC [Compound 301, (Z,3aS,7aS)-N-(1-adamantyloxy)-3a-(3,4-dimethoxyphenyl)-1-methyl-2,3,4,5,7,7a-hexahydroindol-6-imine] | 0 | 0 | 0 | 0 | 100 | 100 | 0 | 0 | 0 | 0 | 0 | 0 | –
COc1ccc([C@@]23CC/C(=N/OC(C)(C)OC)C[C@@H]2N(C)CC3)cc1OC [Compound 219, (Z,3aS,7aS)-3a-(3,4-dimethoxyphenyl)-N-(1-methoxy-1-methyl-ethoxy)-1-methyl-2,3,4,5,7,7a-hexahydroindol-6-imine] | – | – | – | – | – | – | 0 | 0 | 0 | 0 | 0 | 0 | Condition 1 Conversion (%), first value of pair x/y ([1]; time 1 min): 100%; Condition 1 Conversion (%), second value of pair x/y ([1]; time 1 min): 0%; Condition 1 Conversion (%), first value of pair x/y ([1]; time 5 min): 100%; Condition 1 Conversion (%), second value of pair x/y ([1]; time 5 min): 0%; Condition 1 Conversion (%), first value of pair x/y ([1]; time 30 min): 0%; Condition 1 Conversion (%), second value of pair x/y ([1]; time 30 min): 100%; Condition 1 Conversion (%), first value of pair x/y ([1]; time 1 h): 0%; Condition 1 Conversion (%), second value of pair x/y ([1]; time 1 h): 100%; Condition 1 Conversion (%), first value of pair x/y ([1]; time 4 h): 0%; Condition 1 Conversion (%), second value of pair x/y ([1]; time 4 h): 100%; Condition 1 Conversion (%), first value of pair x/y ([1]; time 24 h): 0%; Condition 1 Conversion (%), second value of pair x/y ([1]; time 24 h): 100%
COc1ccc([C@@]23CCC(=NNc4ncccc4C)C[C@@H]2N(C)CC3)cc1OC [Compound 364, (3aS,7aS)-3a-(3,4-dimethoxyphenyl)-1-methyl-6-(2-(3-methylpyridin-2-yl)hydrazineylidene)octahydro-1H-indole] | 10 | 100 | 14.91 | 16.09 | 77.07 | 90.5 | 0 | 0 | 0 | 35.78 | 47 | 78.89 | –
COc1ccc([C@@]23CCC(=NOCC(=O)OC(C)(C)C)C[C@@H]2N(C)CC3)cc1OC [Compound 202, tert-butyl 2-[[(3aS,7aS)-3a-(3,4-dimethoxyphenyl)-1-methyl-2,3,4,5,7,7a-hexahydroindol-6-ylidene]amino]oxyacetate] | 0 | 0 | 0 | – | – | – | 0 | 0 | 0 | 0 | 0 | 0 | Condition 1 Conversion (%), first value of pair x/y ([1]; time 1 h): 1.12%; Condition 1 Conversion (%), second value of pair x/y ([1]; time 1 h): 0%; Condition 1 Conversion (%), first value of pair x/y ([1]; time 4 h): 3.01%; Condition 1 Conversion (%), second value of pair x/y ([1]; time 4 h): 6.42%; Condition 1 Conversion (%), first value of pair x/y ([1]; time 24 h): 64.4%; Condition 1 Conversion (%), second value of pair x/y ([1]; time 24 h): 6.42%
COc1ccc([C@@]23CC/C(=N\NC(=O)NCCc4cccs4)C[C@@H]2N(C)CC3)cc1OC [Compound 256, 1-[[(3aS,7aS)-3a-(3,4-dimethoxyphenyl)-1-methyl-2,3,4,5,7,7a-hexahydroindol-6-ylidene]amino]-3-[2-(2-thienyl)ethyl]urea] | 0 | 0 | 100 | 100 | 23 | 100 | 0 | 0 | 0 | 0 | 43 | 0 | –
COc1ccc([C@@]23CC/C(=N/OC45CC6CC(CC(C6)C4)C5)C[C@@H]2N(C)CC3)cc1OC [Compound 274, (Z,3aS,7aS)-N-(1-adamantyloxy)-3a-(3,4-dimethoxyphenyl)-1-methyl-2,3,4,5,7,7a-hexahydroindol-6-imine] | 0 | 0 | 0 | 0 | 35.5 | 39.91 | 0 | 0 | 0 | 0 | 0 | 0 | –
COc1ccc([C@@]23CC/C(=N\NC(=O)c4ccccc4C(=O)O)C[C@@H]2N(C)CC3)cc1OC [Compound 244, 2-[[[(3aS,7aS)-3a-(3,4-dimethoxyphenyl)-1-methyl-2,3,4,5,7,7a-hexahydroindol-6-ylidene]amino]carbamoyl]benzoic acid] | 33.93 | 100 | 100 | 100 | 100 | 100 | 0 | 0 | 4.08 | 15.25 | 24.59 | 66.56 | –
COc1ccc([C@@]23CCC(=NNCc4cccc(C)c4)C[C@@H]2N(C)CC3)cc1OC [Compound 367, N-[[(3aS,7aS)-3a-(3,4-dimethoxyphenyl)-1-methyl-2,3,4,5,7,7a-hexahydroindol-6-ylidene]amino]-1-(m-tolyl)methanamine] | 100 | 100 | 100 | 100 | 100 | 100 | 5 | 8.3 | 11.5 | 11.92 | 13.32 | 20 | –
